The structures appear in SMILES notation.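 1) Cells in 96-well plates. 2) Compound, 48 h, 5 concentrations. 3) Linear interpolation between surrounding doses. 4) Unreached endpoint = highest concentration. At the GI50, growth is halved.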 Activity calls are given as the source filed them. Rule as the data show it: active = GI50 up to about 1.1 µM and inactive = higher.

Experimental findings from ChEMBL document CHEMBL1201862, “PubChem BioAssay data set” (2004) are described below.

Common to all, as to assay: NCI anticancer screen, dose series, 48 h
In experiment [1] the test system is MDA-MB-231.
Experiment [2] relates to HCT-116.
The test system of experiment [3] is UACC-62.
For experiment [4], the system named is BT-549.
Experiment [5] relates to RXF 393.
Experiment [6] deals with HOP-62.
For experiment [7], the system named is HCT-15.
Experiment [8] has as its system ACHN.
For experiment [9], the system named is KM12.
Experiment [10] deals with MOLT-4.
In experiment [11] the test system is CAKI-1.
The subject of experiment [12] is Malme-3M.
Experiment [13] concerns SK-MEL-5.
Experiment [14] deals with COLO 205.
Experiment [15] deals with SK-MEL-2.
For experiment [16], the system named is SNB-19.
The subject of experiment [17] is LOX IMVI.
In experiment [18] the test system is OVCAR-3.
In experiment [19] the test system is PC-3.

`CC1=CC(=O)CC(C)(C)C1(O)/C=C/C(C)=C/C(=O)O` (stereo not given): the GI50 in [1], in experiment [2], in experiment [3], in experiment [4], in experiment [5] and in experiment [6] was > 100 µM (inactive) each time. For the same molecule, the GI50 in experiment [7] was > 100 µM; in experiment [8] it was > 100 µM (inactive); in experiment [9], > 100 µM (inactive); in experiment [10], > 100 µM (inactive); in experiment [11], > 100 µM (inactive); in [12], > 100 µM (inactive). Moreover, the GI50 in experiment [13], in experiment [14], in [15], in experiment [16], in experiment [17] and in [18] was > 100 µM (inactive) throughout. Also, the GI50 in [19] was > 100 µM (inactive).
Regarding `CCCCCC(O)C(O)CCC[C@H](O)[C@H]1CC[C@H]([C@H]2CC[C@H]([C@H](O)CCCCCCCCCCCCC3=C[C@H](C)OC3=O)O2)O1` (stereo not given in full), the GI50 in experiment [1] is 4.32 µM (inactive); in experiment [2] it was 1.36 µM (inactive); in experiment [3], 1.71 µM (inactive); in experiment [4], 8.93 µM (inactive); in [5], 7.33 µM (inactive); in [6], 5.2 µM (inactive). The GI50 in experiment [7] is 3.81 µM; in experiment [8], 1.59 µM (inactive); in experiment [9], 2.21 µM (inactive); in experiment [10], 2.32 µM (inactive); in experiment [11], 5.07 µM (inactive); in experiment [12] it was 11.9 µM (inactive). Further, the GI50 in [13] is 1.22 µM (inactive); in experiment [14] it was 3.98 µM (inactive); in experiment [15] it was 1.76 µM (inactive); in [16], 3.14 µM (inactive); in experiment [17] it was 1.21 µM (inactive); in experiment [18], 2.47 µM (inactive). Further, the GI50 in experiment [19] is 2.94 µM (inactive).
As to `COC(=O)Cc1c(C2=Nc3ccccc3C2(O)CC(=O)OC)[nH]c2ccccc12` (stereo not given), the GI50 in experiment [1] is 45.2 µM (inactive); in experiment [2], 31.8 µM (inactive); in experiment [3], > 100 µM (inactive); in experiment [4], > 100 µM (inactive); in [5], 97.9 µM (inactive); in experiment [6] it was > 100 µM (inactive). The GI50 in experiment [7] is 40.9 µM; in [8] it was 34.9 µM (inactive); in experiment [9], 58.6 µM (inactive); in experiment [10] it was 19.7 µM (inactive); in experiment [11] it was 23 µM (inactive); in experiment [12], 22.6 µM (inactive). The GI50 in experiment [13] was 60.4 µM (inactive); in [14] it was 20.3 µM (inactive); in experiment [15], > 100 µM (inactive); in [16], 55.8 µM (inactive); in [17], 99.3 µM (inactive); in [18] it was 62.1 µM (inactive). In experiment [19], the GI50 was 30 µM (inactive).
As to `Cc1ccc(S(=O)(=O)Nc2ccccc2C=O)cc1`, the GI50 in experiment [1] is 15.1 µM (inactive); in experiment [2], 14.8 µM (inactive); in experiment [3], 12.5 µM (inactive); in experiment [4] it was 18.6 µM (inactive); in [5] it was 25.6 µM (inactive); in experiment [6] it was 21.5 µM (inactive). The GI50 in experiment [7] is 7.4 µM; in [8], 17.7 µM (inactive); in experiment [9] it was 16.1 µM (inactive); in [10], 11.9 µM (inactive); in experiment [11], 23.9 µM (inactive); in [12] it was 14.7 µM (inactive). Also, the GI50 was 11.9 µM (inactive) in experiment [13]; 16.9 µM (inactive) in experiment [14]; 11.9 µM (inactive) in experiment [15]; 21.5 µM (inactive) in experiment [16]; 13.8 µM (inactive) in experiment [17]; 16.9 µM (inactive) in [18]. Further, the GI50 in [19] was 11.4 µM (inactive).
Regarding `N#Cc1ccc(CSC2=C(c3ccc(Cl)cc3)S/C(=C3\SC(SCc4ccc(C#N)cc4)=C(c4ccc(Cl)cc4)S3)S2)cc1`, the GI50 in experiment [1], in [2], in experiment [3], in experiment [4], in experiment [5] and in [6] was > 100 µM (inactive) in each case. Moreover, the GI50 in [7] is > 100 µM; in experiment [8], > 100 µM (inactive); in experiment [9], > 100 µM (inactive); in [10], > 100 µM (inactive); in experiment [11], > 100 µM (inactive); in experiment [12], > 100 µM (inactive). Besides, the GI50 in experiment [13], in experiment [14], in experiment [15], in experiment [16], in [17] and in [18] was > 100 µM (inactive) each time. For the same molecule, the GI50 in experiment [19] is > 100 µM (inactive).
For the molecule `Cc1cccc(-c2cc(O)c3c(C)cc(C)nc3n2)c1`, the GI50 in experiment [1] was 5.7 µM (inactive); in [2] it was 2.04 µM (inactive); in experiment [3] it was 4.14 µM (inactive); in [4], 3.73 µM (inactive); in experiment [5], 3.41 µM (inactive); in [6], 4.52 µM (inactive). For the same molecule, the GI50 in experiment [7] was 1.32 µM; in [8] it was 8.3 µM (inactive); in experiment [9] it was 0.745 µM (active); in experiment [10], 5.06 µM (inactive); in experiment [11], 5.66 µM (inactive); in experiment [12], 2.31 µM (inactive). In addition, the GI50 in [13] is 1.05 µM (active); in [14], 1.04 µM (active); in experiment [15], 2.73 µM (inactive); in experiment [16] it was 4.38 µM (inactive); in [17], 4.82 µM (inactive); in [18], 1.43 µM (inactive). The GI50 in experiment [19] was 2.43 µM (inactive).
Take `O=[N+]([O-])c1ccc2nc3c(nc2c1)-c1c2ccccc2cc2cccc-3c12`: the GI50 in [1] is 18.7 µM (inactive); in experiment [2], 2.87 µM (inactive); in experiment [3], 10.5 µM (inactive); in [4], 3.56 µM (inactive); in experiment [5] it was 8.41 µM (inactive); in [6] it was 18.6 µM (inactive). The GI50 in experiment [7] was 6.28 µM; in experiment [8], 2.74 µM (inactive); in [9] it was 3.61 µM (inactive); in experiment [10], 2.17 µM (inactive); in experiment [11], 9.77 µM (inactive); in experiment [12], 19 µM (inactive). The GI50 was 31.8 µM (inactive) in experiment [13]; > 100 µM (inactive) in experiment [14]; 27.2 µM (inactive) in experiment [15]; 11.7 µM (inactive) in experiment [16]; 4.8 µM (inactive) in [17]; 12.3 µM (inactive) in experiment [18]. The GI50 in experiment [19] is 9.55 µM (inactive).
In the case of `COc1ccc(-c2c(CN3CCOCC3)sc3nc4ccccc4n23)cc1`, the GI50 in [1] was 23 µM (inactive); in experiment [2], 9.84 µM (inactive); in experiment [3], 16.7 µM (inactive); in experiment [4] it was > 49.4 µM (inactive); in experiment [5], 8.55 µM (inactive); in [6], 31 µM (inactive). Moreover, the GI50 in experiment [7] was 5.58 µM; in experiment [8], 36.6 µM (inactive); in experiment [9] it was 9.48 µM (inactive); in experiment [10], 10.3 µM (inactive); in experiment [11], 28.5 µM (inactive); in experiment [12] it was 3.9 µM (inactive). Moreover, the GI50 was 6.43 µM (inactive) in experiment [13]; 16.4 µM (inactive) in [14]; 30.5 µM (inactive) in experiment [15]; 11.5 µM (inactive) in experiment [16]; 18.5 µM (inactive) in experiment [17]; 9.86 µM (inactive) in experiment [18]. Moreover, in [19], the GI50 was 9.33 µM (inactive).
On to `COc1cc(OC)c2c(=O)c(OC)c(-c3ccc4c(c3)OCO4)oc2c1OC`, for which the GI50 in experiment [1] is 91.4 µM (inactive); in [2], 83.9 µM (inactive); in experiment [3], 98.9 µM (inactive); in [4], > 100 µM (inactive); in experiment [5] it was > 100 µM (inactive); in [6] it was 91.8 µM (inactive). The GI50 was > 100 µM in [7]; 83.8 µM (inactive) in experiment [8]; > 100 µM (inactive) in experiment [9]; 78.5 µM (inactive) in experiment [10]; > 100 µM (inactive) in experiment [11]; > 100 µM (inactive) in [12]. Besides, the GI50 in experiment [13] was 23.2 µM (inactive); in experiment [14] it was 53.6 µM (inactive); in experiment [15] it was > 100 µM (inactive); in [16], > 100 µM (inactive); in [17] it was 41.2 µM (inactive); in experiment [18], > 100 µM (inactive). The GI50 in experiment [19] is > 100 µM (inactive).
`Cc1nn(-c2ccccc2)c2c1C(c1cc3ccccc3nc1Cl)NC(=S)N2` (stereo not given): the GI50 in [1] is > 100 µM (inactive); in experiment [2] it was 36.1 µM (inactive); in experiment [3], 76.7 µM (inactive); in experiment [4], 47.4 µM (inactive); in experiment [5], 26.3 µM (inactive); in experiment [6], > 100 µM (inactive). Moreover, the GI50 in experiment [7] was 31.8 µM; in experiment [8], 54.2 µM (inactive); in [9] it was 30.7 µM (inactive); in experiment [10], 29.4 µM (inactive); in experiment [11] it was 59.4 µM (inactive); in [12], > 100 µM (inactive). The GI50 was 58.6 µM (inactive) in experiment [13]; > 100 µM (inactive) in experiment [14]; 14.5 µM (inactive) in experiment [15]; 57.3 µM (inactive) in experiment [16]; 22.6 µM (inactive) in experiment [17]; 54 µM (inactive) in experiment [18]. Moreover, the GI50 in experiment [19] was 67.1 µM (inactive).
